From US8455014B2, “Composition comprising Trachelospermi caulis and Pyrola japonica extracts for the treatment and prevention of inflammatory diseases” (Sinil Pharmaceutical Co., Ltd., priority 2007, dated 2013)

Assays:
[1] = system: vascular permeability induced by acetic acid; assay: Acetic acid-induced vascular permeability in mice; type: in vivo, ICR mice; conditions: Evans blue in abdominal cavity, OD 630 nm
Method: The inhibitory effect of the mixed herbal extract obtained in the above reference example 3 against vascular permeability was investigated.
Seven week old ICR mice were separated into each experimental group, orally administered with Trachelospermi caulis extract at a concentration of 20 mg/kg and 200 mg/kg, respectively, Pyrola japonica extract at a concentration of 20 mg/kg and 200 mg/kg, respectively, and a mixed […], respectively, after dissolving them in distilled water to a concentration of 0.1 mL/10 g b.wt., by using a sonde.
The dosage volume was determined based on the body weight measured on the day of experiment and the control group was only administered with distilled water, a preparation solvent, at a concentration of 0.1 mL/10 g b.wt. Phenylbutazone was orally administered with a dosage of 50 mg/kg b.wt. after suspending it in 0.5% methyl cellulose.
ICR male mice, which were fasted for 12 hours prior to the experiment, were administered with a test substance according to the method of Whittle (1964). […] The washing solution was collected from the abdominal cavity and then centrifuged at 2,000 rpm for 10 minutes and the supernatant was measured of its optical density at 630 nm by using a spectrophotometer to calculate the amount of Evan's blue solution flowed into the abdominal cavity. […]

[2] = system: TNF-α; conditions: Int Immunopharmacol. 2004; 4(10-11):1419-29; cited from earlier work
[3] = system: NF-κB; conditions: human keratinocytes; J Dermatol Sci. 2003; 31(3):193-201; cited from earlier work

SMILES: COc1ccc2c(c1)c(CC(=O)O)c(C)n2C(=O)c1ccc(Cl)cc1 [indomethacin]
- Leakage of dye ([1]; 1 mg/kg): 36.3 ± 2.67 μg/10 g b. wt.

SMILES: COc1ccc(C[C@H]2COC(=O)[C@@H]2Cc2ccc(O[C@@H]3O[C@H](CO)[C@@H](O)[C@H](O)[C@H]3O)c(OC)c2)cc1OC [arctiin]
- TNF-α inhibitory activity [2]: TNF-α inhibitory activity

SMILES: OC[C@H]1O[C@@H](Oc2ccc(O)cc2)[C@H](O)[C@@H](O)[C@@H]1O [Arbutin]
- activity of NF-κB [3]: inhibit the activity of NF-κB

SMILES: CCCCC1C(=O)N(c2ccccc2)N(c2ccccc2)C1=O [phenylbutazone]
- Leakage of dye ([1]; 50 mg/kg oral): 39.0 ± 3.45 μg/10 g b. wt.

SMILES: COc1cc(C[C@H]2C(=O)OC[C@@H]2Cc2ccc(OC)c(OC)c2)ccc1O [arctigenin]
- TNF-α inhibitory activity [2]: TNF-α inhibitory activity
